System: P12-Ichikawa
Assay: cell viability relative to DMSO control; higher = less cytotoxic
Settings: 48 h
How it was run: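 NOMO1 or SEM cells were plated at 500 cells/well and P12-Ichikawa cells at 1000 cells/well in 1536-well plates (5 μl), after each leukemia line had been adapted for at least four passages in each medium. Pin dosing delivered library compounds in DMSO at 11 threefold concentrations, 47 μM to 0.79 nM. CellTiter-Glo One luminescence was read after 48 h at 37°C. Viability is reported as a per-plate percentage of DMSO wells, with cell-free wells as background.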

[1] = HPLM + 10% dialyzed FBS, 0.000781 µM
[2] = HPLM + 10% dialyzed FBS, 0.00234 µM
[3] = HPLM + 10% dialyzed FBS, 0.00702 µM
[4] = HPLM + 10% dialyzed FBS, 0.0211 µM
[5] = HPLM + 10% dialyzed FBS, 0.0632 µM
[6] = HPLM + 10% dialyzed FBS, 0.19 µM
[7] = HPLM + 10% dialyzed FBS, 0.569 µM
[8] = HPLM + 10% dialyzed FBS, 1.71 µM
[9] = HPLM + 10% dialyzed FBS, 5.12 µM
[10] = HPLM + 10% dialyzed FBS, 15.4 µM
[11] = HPLM + 10% dialyzed FBS, 46.1 µM
[12] = RPMI 5 mM glucose + 10% dialyzed FBS, 0.000781 µM
[13] = RPMI 5 mM glucose + 10% dialyzed FBS, 0.00234 µM
[14] = RPMI 5 mM glucose + 10% dialyzed FBS, 0.00702 µM
[15] = RPMI 5 mM glucose + 10% dialyzed FBS, 0.0211 µM
[16] = RPMI 5 mM glucose + 10% dialyzed FBS, 0.0632 µM
[17] = RPMI 5 mM glucose + 10% dialyzed FBS, 0.19 µM
[18] = RPMI 5 mM glucose + 10% dialyzed FBS, 0.569 µM
[19] = RPMI 5 mM glucose + 10% dialyzed FBS, 1.71 µM
[20] = RPMI 5 mM glucose + 10% dialyzed FBS, 5.12 µM
[21] = RPMI 5 mM glucose + 10% dialyzed FBS, 15.4 µM
[22] = RPMI 5 mM glucose + 10% dialyzed FBS, 46.1 µM
[23] = RPMI 5 mM glucose + 10% FBS, 0.000781 µM
[24] = RPMI 5 mM glucose + 10% FBS, 0.00234 µM
[25] = RPMI 5 mM glucose + 10% FBS, 0.00702 µM
[26] = RPMI 5 mM glucose + 10% FBS, 0.0211 µM
[27] = RPMI 5 mM glucose + 10% FBS, 0.0632 µM
[28] = RPMI 5 mM glucose + 10% FBS, 0.19 µM
[29] = RPMI 5 mM glucose + 10% FBS, 0.569 µM
[30] = RPMI 5 mM glucose + 10% FBS, 1.71 µM
[31] = RPMI 5 mM glucose + 10% FBS, 5.12 µM
[32] = RPMI 5 mM glucose + 10% FBS, 15.4 µM
[33] = RPMI 5 mM glucose + 10% FBS, 46.1 µM

Row | SMILES | cell viability [1] | cell viability [2] | cell viability [3] | cell viability [4] | cell viability [5] | cell viability [6] | cell viability [7] | cell viability [8] | cell viability [9] | cell viability [10] | cell viability [11] | cell viability [12] | cell viability [13] | cell viability [14] | cell viability [15] | cell viability [16] | cell viability [17] | cell viability [18] | cell viability [19] | cell viability [20] | cell viability [21] | cell viability [22] | cell viability [23] | cell viability [24] | cell viability [25] | cell viability [26] | cell viability [27] | cell viability [28] | cell viability [29] | cell viability [30] | cell viability [31] | cell viability [32] | cell viability [33]
1 | CCN(CC)CCCCNc1ncc2c(n1)N(C)C(=O)N(c1c(Cl)c(OC)cc(OC)c1Cl)C2 | 118% | 121% | 120% | 118% | 117% | 115% | 113% | 121% | 114% | 105% | 11.8% | 120% | 110% | 122% | 119% | 120% | 117% | 106% | 103% | 121% | 90.9% | 22.8% |  |  |  |  |  |  |  |  |  |  | 
2 | CC[C@@]1(O)C(=O)OCC/2=C1/C=C3\N(CC4=CC5=CC(=CC=C5N=C34)O)C2=O |  |  |  |  |  |  |  |  |  |  |  | 115% | 127% | 106% | 88.7% | 16.9% | 12.1% | 10.2% | 6.53% | 6.88% | 6.54% | 8.98% | 122% | 120% | 117% | 91.5% | 11.4% | 9.55% | 8.05% | 7.2% | 6.2% | 5.86% | 6.96%
3 | CC(C)c1cnn2c(NCc3ccccc3)cc(NCCCCCCN)nc12 | 110% | 124% | 131% | 125% | 122% | 127% | 116% | 113% | 116% | 110% | 76.8% |  |  |  |  |  |  |  |  |  |  |  |  |  |  |  |  |  |  |  |  |  | 
4 | CNCc1ccc(-c2[nH]c3cc(F)cc4c3c2CCNC4=O)cc1 | 109% | 124% | 121% | 121% | 124% | 126% | 130% | 119% | 122% | 123% | 119% |  |  |  |  |  |  |  |  |  |  |  |  |  |  |  |  |  |  |  |  |  | 
5 | CN[C@@H]1Cc2cccc3[nH]c(=O)n(c23)C1 | 124% | 123% | 114% | 115% | 122% | 117% | 108% | 117% | 108% | 106% | 111% | 122% | 122% | 116% | 130% | 117% | 123% | 115% | 109% | 108% | 111% | 105% |  |  |  |  |  |  |  |  |  |  | 
6 | COc1cc2nc(N3CCN(C(=O)C4CCCO4)CC3)nc(N)c2cc1OC (centres undefined) | 112% | 123% | 123% | 127% | 130% | 130% | 131% | 124% | 127% | 139% | 136% |  |  |  |  |  |  |  |  |  |  |  |  |  |  |  |  |  |  |  |  |  | 
7 | C[S+](=O)([O-])c1cccc(CNc2nc(Nc3ccc4c(c3)CCC(=O)N4)ncc2C(F)(F)F)c1 | 114% | 122% | 112% | 111% | 110% | 107% | 106% | 102% | 106% | 96.7% | 14.3% | 110% | 120% | 120% | 113% | 111% | 110% | 106% | 114% | 104% | 94.3% | 32.3% | 119% | 120% | 113% | 120% | 108% | 111% | 113% | 103% | 101% | 89.9% | 25.9%
8 | Nc1cc(C(F)(F)F)c(-c2cc(N3CCOCC3)nc(N3CCOCC3)n2)cn1 |  |  |  |  |  |  |  |  |  |  |  |  |  |  |  |  |  |  |  |  |  |  | 111% | 124% | 135% | 137% | 133% | 126% | 94.8% | 67.2% | 15.7% | 13.2% | 7.95%
9 | C[S+](=O)([O-])c1ccc(C(=O)Nc2ccc(Cl)c(-c3ccccn3)c2)c(Cl)c1 | 113% | 113% | 123% | 132% | 131% | 135% | 136% | 125% | 131% | 126% | 127% |  |  |  |  |  |  |  |  |  |  |  |  |  |  |  |  |  |  |  |  |  | 

From the supplement of paper PMC11451515
